Where a name gives a salt, the structure may show the parent alone.
Legend:
IFN = assay: Cytokine Induction in Human Cells: interferon (IFN) secreted by PBMCs, A549/encephalomyocarditis bioassay; assay type: cell-based; settings: 18 to 24 hours
Source text: (§1) An in vitro human blood cell system was used to assess cytokine induction by compounds of the invention. Activity is based on the measurement of interferon and tumor necrosis factor (ℑ) (IFN and TNF, respectively) secreted into culture media as described by Testerman et. al. In “Cytokine Induction by the Immunomodulators Imiquimod and S-27609”, Journal of Leukocyte Biology, 58, 365-372 (September, 1995). Blood Cell Preparation for Culture
(§2) Whole blood is collected by venipuncture into EDTA vacutainer tubes from healthy human donors. Peripheral blood mononuclear cells (PBMCs) are separated from whole blood by Histopaque®-1077 (Sigma Chemicals, St. Louis, Mo.) density gradient centrifugation. The PBMCs are suspended at 1.5-2×10^6 cells/mL in RPMI 1640 medium containing 10% fetal bovine serum, 2 mM L-glutamine and 1% penicillin/streptomycin solution (RPMI complete). 1 mL portions of PBMC suspension are added to 24 well flat bottom sterile tissue culture plates.
(§3) The compounds are solubilized in dimethyl sulfoxide (DMSO). The DMSO concentration should not exceed a final concentration of 1% for addition to the culture wells. The compounds are generally tested in a concentration range of from 0.1 to 100 μM.
(§4) The solution of test compound is added to the wells containing 1 mL of PBMCs in media. The plates are covered with plastic lids, mixed gently and then incubated for 18 to 24 hours at 37° C. with a 5% carbon dioxide atmosphere.
(§5) Following incubation the plates are centrifuged for 5-10 minutes at 1000 rpm (˜200×g) at 4° C. The cell culture supernatant is removed with a sterile polypropylene pipet and transferred to a 2 mL sterile cryotube. Samples are maintained at −70° C. until analysis.
Interferon is determined by bioassay using A549 human lung carcinoma cells challenged with encephalomyocarditis. The details of the bioassay method have been described by G. L. Brennan and L. H. Kronenberg in “Automated Bioassay of Interferons in Micro-test Plates”, Biotechniques, June/July 78, 1983, incorporated herein by reference. Briefly stated the method is as follows: A549 cells are incubated with samples and standard interferon dilutions at 37° C. for 24 hours. The incubated cells are then infected with an inoculum of encephalomyocarditis virus. The infected cells are incubated for an additional 24 hours at 37° C. before quantifying for viral cytopathic effect. The viral cytopathic effect is quantified by staining followed by visual scoring of the plates. Results are expressed as alpha reference units/mL based on the value obtained for NIH Human Leukocyte IFN standard.

TNF = assay: Cytokine Induction in Human Cells: tumor necrosis factor (TNF) secreted by PBMCs, ELISA; assay type: cell-based; settings: 18 to 24 hours
Source text: as §1, §2, §3, §4, §5
Tumor necrosis factor (ℑ) (TNF) concentration is determined using an ELISA kit available from Genzyme, Cambridge, Mass. The results are expressed as pg/mL.
Note: call rule not given here.

SMILES | IFN induction (IFN; Dose Concentration 0.1 μM) | IFN induction (IFN; Dose Concentration 1.0 μM) | IFN induction (IFN; Dose Concentration 10.0 μM) | IFN induction (IFN; Dose Concentration 100.0 μM) | TNF induction (TNF; Dose Concentration 0.1 μM) | TNF induction (TNF; Dose Concentration 1.0 μM) | TNF induction (TNF; Dose Concentration 10.0 μM) | TNF induction (TNF; Dose Concentration 100.0 μM)
CCCCc1nc2c(N)nc3cccnc3c2n1CCCCNC(=O)c1cccc(Br)c1 [Example 153] | − | + | + | − | − | + | + | −
CCCCc1nc2c(N)nc3cccnc3c2n1CCNC(=O)c1c(OC)cccc1OC [Example 128] |  | ± | + | + |  | − | ± | +
CCCCc1nc2c(N)nc3cccnc3c2n1CCNC(=O)C1(c2ccc(Cl)cc2)CCCC1 [Example 119] |  | − | − | − |  | − | − | −
CCCCNC(=O)NCCCCn1c(CCCC)nc2c(N)nc3cccnc3c21 [Example 49, N-[4-(4-Amino-2-butyl-1H-imidazo[4,5-c][1,5]naphthyridin-1-yl)butyl]-N′-butylurea] | + | + | + | + | − | + | + | +
CCCCc1nc2c(N)nc3cccnc3c2n1CCNC(=O)C1CCCC1 [Example 137] |  | + | + | + |  | − | ± | +
CCCCc1nc2c(N)nc3cccnc3c2n1CCNC(=O)c1cnc(C)cn1 [Example 205] | + | + | + | + | − | + | + | +
CCCCc1nc2c(N)nc3cccnc3c2n1CCCCNC(=O)c1ccc(C(=O)c2ccccc2)cc1 [Example 113, N^1-[4-(4-Amino-2-butyl-1H-imidazo[4,5-c][1,5]naphthyridin-1-yl)butyl]-4-benzoylbenzamide] | − | + | + | + | − | + | + | +
CCCCc1nc2c(N)nc3cccnc3c2n1CCCCNC(=O)c1cc(C(F)(F)F)cc(C(F)(F)F)c1 [Example 161] | ± | + | + | + | − | − | + | +
CCCCc1nc2c(N)nc3cccnc3c2n1CCNC(=O)CCCc1ccc([N+](=O)[O-])cc1 [Example 195] | − | − | + | − | − | + | + | +
CCCCc1nc2c(N)nc3cccnc3c2n1CCNC(=O)CCC(F)(F)F [Example 199] | + | − | + | + | − | − | + | +
CCCCc1nc2c(N)nc3cccnc3c2n1CCNC(=O)CCc1ccccc1 [Example 96, N^1-[2-(4-Amino-2-butyl-1H-imidazo[4,5-c][1,5]naphthyridin-1-yl)ethyl]-3-phenylpropanamide Hydrochloride] | − | ± | + | + | − | − | + | +
CCCCc1nc2c(N)nc3cccnc3c2n1CCCCNC(=O)Cc1ccc(OC)cc1 [Example 187] | − | + | + | + | − | + | + | −
CCCCc1nc2c(N)nc3cccnc3c2n1CCNC(=O)CCc1cccnc1 [Example 208] | − | − | + | + | − | − and ± | − and + | − and +
CCCCc1nc2c(N)nc3cccnc3c2n1CCCCNC(=O)NC1CCCCC1 [Example 48, N-[4-(4-Amino-2-butyl-1H-imidazo[4,5-c][1,5]naphthyridin-1-yl)butyl]-N′-cyclohexylurea] | + | + | + | − | − | + | + | −
CCCCc1nc2c(N)nc3cccnc3c2n1CCNC(=O)C1CC(=O)N(Cc2ccc(Cl)cc2)C1 (centres unmarked) [Example 210] | − | − | + | + | + | + | + | +
CCCCc1nc2c(N)nc3cccnc3c2n1CCNC(=O)c1ccc([N+](=O)[O-])o1 [Example 146] | + | + | + | − | + | + | + | +
CCCCc1nc2c(N)nc3cccnc3c2n1CCCCNC(=O)c1c(C)cc(C)cc1C [Example 180] | + | + | + | + | ± | + | + | +
CCCCc1nc2c(N)nc3cccnc3c2n1CCCCNC(=O)c1ccco1 [Example 51, N-[4-(4-Amino-2-butyl-1H-imidazo[4,5-c][1,5]naphthyridin-1-yl)butyl]-2-furamide] |  | + | + | + |  | + | + | −
CCCCc1nc2c(N)nc3cccnc3c2n1CCNC(=O)c1ccc(F)cc1 [Example 129] |  | + | + | + |  | + | + | +
CCCCc1nc2c(N)nc3cccnc3c2n1CCNC(=O)CCCCC(=O)OC [Example 145] | − | − | + | + | − | + | + | +
CCCCc1nc2c(N)nc3cccnc3c2n1CCNC(=O)Cc1cccnc1 [Example 207] | − | − | + | + | − | − | + | +

Reference: patent US7678918B2, “Intermediates for imidazonaphthyridines” (3M Innovative Properties Company, priority 1997, dated 2010)
